Laboratory results from the supplement of paper PMC10307832.

These cell lines were tested with Cn1nnc2c(C(N)=O)ncn2c1=O [Temozolomide] + C[C@]1(O)C[C@@H](c2nc(-c3ccc4ccc(-c5ccccc5)nc4c3)c3c(N)nccn32)C1 [Linsitinib] (partner 1 µM) (assay: relative viability (nuclei count vs DMSO), 5 days (fraction); higher = more cells survive). Settings: first compound 0.2 µM.
Summary of the method: (§1)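 Values are medians from duplicate plates. Each reflects relative viability, defined as the nuclei count of treated wells over that of vehicle wells. Lung cancer cell lines in 1536-well plates were pin-tool dosed one day after seeding with one drug alone or with a fixed anchor-drug dose plus five library-drug doses (not always all listed) in √10 steps, then fixed, stained and imaged at 4× after 5 days.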

Compared with NCI-H2228, NCI-H2347 is higher in relative viability: 0.794 for the first, 1.08 for the second.

Compared with NCI-H2405, NCI-H3122 is higher in relative viability: 0.707 for the first, 0.963 for the second.

First: PC-3 [JPC-3]
Second: PC-14
The relative viability of the first is lower: 0.932 for the first, 0.96 for the second.

First: RERF-LC-KJ
Second: SK-LU-1
The relative viability of the first is lower: 0.928 for the first, 1.26 for the second.

Going from SK-MES-1 to SW 1573, the relative viability falls from 1.14 to 0.74.

In the case of UMC-11, the relative viability is reported as 1.

Same assay, conditions: first compound 0.6325 µM

Going from NCI-H2228 to NCI-H2347, the relative viability rises from 0.705 to 1.11.

Going from NCI-H2405 to NCI-H3122, the relative viability rises from 0.924 to 1.02.

Going from PC-3 [JPC-3] to PC-14, the relative viability falls from 0.975 to 0.942.

Going from RERF-LC-KJ to SK-LU-1, the relative viability rises from 0.888 to 1.06.

Compared with SK-MES-1, SW 1573 is lower in relative viability: 1.09 for the first, 0.738 for the second.

UMC-11 showed a relative viability of 1.06.

Same assay, conditions: first compound 2 µM

Compared with NCI-H2228, NCI-H2347 is higher in relative viability: 0.693 for the first, 1 for the second.

Compared with NCI-H2405, NCI-H3122 is lower in relative viability: 1.09 for the first, 1.02 for the second.

Compared with PC-3 [JPC-3], PC-14 is higher in relative viability: 0.941 for the first, 0.984 for the second.

Going from RERF-LC-KJ to SK-LU-1, the relative viability rises from 0.948 to 1.05.

Going from SK-MES-1 to SW 1573, the relative viability falls from 1.07 to 0.737.

In the case of UMC-11, the relative viability is reported as 0.942.

Same assay, conditions: first compound 6.325 µM

First: NCI-H2228
Second: NCI-H2347
The relative viability of the first is lower: 0.636 for the first, 0.859 for the second.

First: NCI-H2405
Second: NCI-H3122
The relative viability of the first is lower: 0.858 for the first, 0.985 for the second.

Compared with PC-3 [JPC-3], PC-14 is lower in relative viability: 0.987 for the first, 0.871 for the second.

First: RERF-LC-KJ
Second: SK-LU-1
The relative viability of the first is higher: 0.982 for the first, 0.671 for the second.

First: SK-MES-1
Second: SW 1573
The relative viability of the first is higher: 1.13 for the first, 0.579 for the second.

With UMC-11 the relative viability was 0.91.

Same assay, conditions: first compound 20 µM

Compared with NCI-H2228, NCI-H2347 is higher in relative viability: 0.822 for the first, 0.964 for the second.

Compared with NCI-H2405, NCI-H3122 is higher in relative viability: 0.95 for the first, 0.98 for the second.

Going from PC-3 [JPC-3] to PC-14, the relative viability rises from 0.499 to 0.837.

Compared with RERF-LC-KJ, SK-LU-1 is lower in relative viability: 0.868 for the first, 0.454 for the second.

Compared with SK-MES-1, SW 1573 is lower in relative viability: 1.05 for the first, 0.659 for the second.

Work on UMC-11 yielded a relative viability of 0.584.

The cell lines below were run with Cn1nnc2c(C(N)=O)ncn2c1=O [Temozolomide] + CC(=O)Nc1cccc(-n2c(=O)n(C3CC3)c(=O)c3c(Nc4ccc(I)cc4F)n(C)c(=O)c(C)c32)c1 [Trametinib] (partner 0.02 µM) in the same assay as above. Settings: first compound 0.2 µM.
Summary of the method: as §1

Going from NCI-H2228 to NCI-H2347, the relative viability falls from 0.286 to 0.26.

Compared with NCI-H2405, NCI-H3122 is lower in relative viability: 0.585 for the first, 0.222 for the second.

Compared with PC-3 [JPC-3], PC-14 is higher in relative viability: 0.547 for the first, 0.96 for the second.

Compared with RERF-LC-KJ, SK-LU-1 is lower in relative viability: 0.788 for the first, 0.534 for the second.

Going from SK-MES-1 to SW 1573, the relative viability rises from 0.656 to 0.688.

In the case of UMC-11, the relative viability is reported as 0.728.

Same assay, conditions: first compound 0.6325 µM

Going from NCI-H2228 to NCI-H2347, the relative viability falls from 0.617 to 0.291.

First: NCI-H2405
Second: NCI-H3122
The relative viability of the first is higher: 0.699 for the first, 0.291 for the second.

Going from PC-3 [JPC-3] to PC-14, the relative viability falls from 0.769 to 0.766.

Compared with RERF-LC-KJ, SK-LU-1 is lower in relative viability: 0.815 for the first, 0.487 for the second.

Compared with SK-MES-1, SW 1573 is lower in relative viability: 0.578 for the first, 0.504 for the second.

UMC-11 showed a relative viability of 0.749.

Same assay, conditions: first compound 2 µM

First: NCI-H2228
Second: NCI-H2347
The relative viability of the first is higher: 0.432 for the first, 0.28 for the second.

Compared with NCI-H2405, NCI-H3122 is lower in relative viability: 0.798 for the first, 0.246 for the second.

Going from PC-3 [JPC-3] to PC-14, the relative viability falls from 0.821 to 0.758.

Compared with RERF-LC-KJ, SK-LU-1 is lower in relative viability: 0.763 for the first, 0.44 for the second.

First: SK-MES-1
Second: SW 1573
The relative viability of the first is higher: 0.663 for the first, 0.56 for the second.

UMC-11 showed a relative viability of 0.786.

Same assay, conditions: first compound 6.325 µM

First: NCI-H2228
Second: NCI-H2347
The relative viability of the first is higher: 0.459 for the first, 0.289 for the second.

Compared with NCI-H2405, NCI-H3122 is lower in relative viability: 0.569 for the first, 0.251 for the second.

First: PC-3 [JPC-3]
Second: PC-14
The relative viability of the first is lower: 0.724 for the first, 0.813 for the second.

Going from RERF-LC-KJ to SK-LU-1, the relative viability falls from 0.845 to 0.382.

First: SK-MES-1
Second: SW 1573
The relative viability of the first is lower: 0.539 for the first, 0.583 for the second.

Cell Line UMC-11 has a relative viability of 0.643.

Same assay, conditions: first compound 20 µM

Compared with NCI-H2228, NCI-H2347 is lower in relative viability: 0.537 for the first, 0.244 for the second.

First: NCI-H2405
Second: NCI-H3122
The relative viability of the first is higher: 0.597 for the first, 0.242 for the second.
